Results on one compound are retold here after patent publication US7135293B2, “Method of detecting a nucleic acid using a fluorescent group-containing carbodiimide as a label” (Nisshinbo Industries, Inc., priority 1999, dated 2006).

A short description of this data set: Water solubility test.

Consider `CC1(C)C(/C=C/C2=C(Oc3ccccc3)C(=C/C=C3/N(CCCCS(=O)(=O)O)c4ccccc4C3(C)C)/CCC2)=[N+](CCCNC(=S)NCCC[N+](C)(C)CCCCCCN=C=NCCC[N+]2(C)CCOCC2)c2ccc3ccccc3c21.I` [Compound (2)], for which the Solubility in water turned out to be 55 µg/µL.
